Assays:
PIM1 = PIM1 (Homo sapiens, UniProt P11309); experiment: PIM1 inhibition assay (ligand-binding assay, manufacturer's instructions); type: biochemical; conditions: Bliss method, three independent determinations, read-out: IC50 (μM): mean ± SD
[1] = Human intestinal absorption percentage values of the PreHIA data set (732 compounds, Table S2); conditions: class from HIA value
[2] = human; PreHIA data set, value given as fraction; cited from earlier work
PTGS1 = target: T1, PTGS1 (Ovis aries, UniProt P05979); experiment: PTGS1 inhibition assay (ligand-binding assay, manufacturer's instructions); type: biochemical; conditions: Bliss method, three independent determinations, read-out: IC50 (μM): mean ± SD
T1 sequence (P05979 25-600): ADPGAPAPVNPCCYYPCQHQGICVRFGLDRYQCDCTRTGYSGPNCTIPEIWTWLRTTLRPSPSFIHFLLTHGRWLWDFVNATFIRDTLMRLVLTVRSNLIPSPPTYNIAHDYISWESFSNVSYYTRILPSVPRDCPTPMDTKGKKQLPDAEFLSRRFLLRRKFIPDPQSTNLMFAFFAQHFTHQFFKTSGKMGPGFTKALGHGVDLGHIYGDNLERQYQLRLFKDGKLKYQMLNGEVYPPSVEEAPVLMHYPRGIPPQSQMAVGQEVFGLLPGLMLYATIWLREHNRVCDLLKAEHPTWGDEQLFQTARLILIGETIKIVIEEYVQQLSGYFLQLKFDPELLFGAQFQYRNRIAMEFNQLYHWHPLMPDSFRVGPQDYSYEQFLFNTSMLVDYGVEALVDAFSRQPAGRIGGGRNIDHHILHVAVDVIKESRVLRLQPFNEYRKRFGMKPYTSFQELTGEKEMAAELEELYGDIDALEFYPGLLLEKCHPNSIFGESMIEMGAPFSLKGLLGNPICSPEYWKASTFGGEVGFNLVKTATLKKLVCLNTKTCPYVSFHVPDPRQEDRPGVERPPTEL
Procedure: To validate the practicability and efficiency of above methods, the inhibitory effects of drugs on predicted targets were quantified by ligand-binding assays according to the manufacturer's instructions. The drug-target interactions were selected at random and readily available on the market, respectively. […] Targets PIM1 and PTGS1 were respectively purchased from Cayman Chemical, Ann Arbor, MI, USA and CycLex, Japan. The purity of all the compounds is >98%. All drugs were dissolved in DMS and freshly prepared due to loss of activity under long-term storage. IC50 values were determined using the Bliss method with three independent determinations.

PIM1, sequence (P11309 whole entry): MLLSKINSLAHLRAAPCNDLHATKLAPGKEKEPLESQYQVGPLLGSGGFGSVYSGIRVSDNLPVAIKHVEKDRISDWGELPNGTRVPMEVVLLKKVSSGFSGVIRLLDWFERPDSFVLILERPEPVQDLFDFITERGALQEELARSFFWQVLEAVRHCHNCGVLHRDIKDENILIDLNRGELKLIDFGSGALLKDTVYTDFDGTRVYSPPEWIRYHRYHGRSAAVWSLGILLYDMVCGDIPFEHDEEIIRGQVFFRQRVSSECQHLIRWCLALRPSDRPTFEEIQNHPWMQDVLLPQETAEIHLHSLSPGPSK

SMILES | IC50 (PIM1) [µM] | Class(High: HIA value ≥0.7; Low: HIA value < 0.7) [1] | HIA(Human Intestinal Absorption) [2] | IC50 (PTGS1) [µM]
C[C@@H]1O[C@@H](OC[C@H]2O[C@@H](Oc3c(-c4ccc(O)c(O)c4)oc4cc(O)cc(O)c4c3=O)[C@H](O)[C@@H](O)[C@@H]2O)[C@H](O)[C@H](O)[C@H]1O [Rutin] | 57 ± 5.8 |  |  | 
O=c1c(O[C@@H]2O[C@H](CO)[C@@H](O)[C@H](O)[C@H]2O)c(-c2ccc(O)cc2)oc2cc(O)cc(O)c12 [Astragalin] | 62 ± 9.7 |  |  | 
C[C@H]([C@](O)(Cn1cncn1)c1ccc(F)cc1F)S(C)(=O)=O [Genaconazole] |  | High (High: HIA value ≥0.7) | 1 | 
CCO[C@@H](Cc1ccc(OCCc2ccc(OS(C)(=O)=O)cc2)cc1)C(=O)O [Tesaglitazar] |  | High (High: HIA value ≥0.7) | 1 | 
C[N+](C)(C)CC(O)CC(=O)[O-] (stereo not shown) [Carnitine] |  | Low (Low: HIA value < 0.7) | 0.1 | 
C[C@@H]1CC(=O)NN=C1c1ccc(NN=C(C#N)C#N)cc1 [Levosimendan] |  | High (High: HIA value ≥0.7) | 0.9 | 
NS(=O)(=O)c1cc(-c2nnn[nH]2)c(NCc2cccs2)cc1Cl [Azosemide] |  | Low (Low: HIA value < 0.7) | 0.1 | 
Clc1ccc2c(c1)C(N1CCNCC1)=Nc1ccccc1O2 [Amoxapine] |  | High (High: HIA value ≥0.7) | 0.95 | 
COc1ccc2c(C(=S)N(C)CC(=O)O)cccc2c1C(F)(F)F [Tolrestat] |  | Low (Low: HIA value < 0.7) | 0.66 | 
O=CN(O)CCCP(=O)(O)O [Fosmidomycin] |  | Low (Low: HIA value < 0.7) | 0.3 | 
C=C[C@H]1C[N@@]2CC[C@H]1C[C@@H]2[C@@H](O)c1ccnc2ccccc12 [Cinchonine] |  | High (High: HIA value ≥0.7) | 1 | 
NC(=O)OCC(COC(N)=O)c1ccccc1 [Felbamate] |  | High (High: HIA value ≥0.7) | 0.9 | 
CC(=O)Nc1ccc(OC(=O)c2ccccc2OC(C)=O)cc1 [Benorylate] |  | High (High: HIA value ≥0.7) | 1 | 
CN(Cc1cc(Br)cc(Br)c1N)C1CCCCC1 [Bromhexine] |  | High (High: HIA value ≥0.7) | 0.7 | 
O=C(O)[C@H](CCc1ccccc1)N[C@H]1CCCN2CCC[C@@H](C(=O)O)N2C1=O [Cilazaprilat] |  | Low (Low: HIA value < 0.7) | 0.2 | 
O=c1c(O[C@@H]2O[C@H](CO)[C@@H](O)[C@H](O)[C@H]2O)c(-c2ccc(O)cc2)oc2cc(O)cc(O)c12 [Kaempferol-3-glucoside] |  |  |  | 74
O=[N+]([O-])c1ccc(O)c2ncccc12 [Nitroxoline] |  | High (High: HIA value ≥0.7) | 1 | 

— PMC4460250, “Systems Pharmacology Dissecting Holistic Medicine for Treatment of Complex Diseases: An Example Using Cardiocerebrovascular Diseases Treated by TCM” (Evidence-based Complementary and Alternative Medicine : eCAM, 2015)
